Measured values: article PMC3454376, “Salidroside Improves Behavioral and Histological Outcomes and Reduces Apoptosis via PI3K/Akt Signaling after Experimental Traumatic Brain Injury” (PLoS ONE, 2012)

Test system: mice subjected to controlled cortical impact injury
Assay: Brain water content (brain edema) after CCI
Format: in vivo
Conditions: day 1, vehicle 84.5±1.2%
Experimental: All animal procedures were approved by the Animal Research Committee at Cheng Hsin General Hospital (Animal permit number […] 101-08), and all procedures complied with the Guide for the Care and Use of Laboratory Animals published by the US National Institutes of Health (NIH Publication No. 85-23, revised 1996). Animals were housed under a 12-h light/dark cycle and at constant temperature (21-25°C) and humidity (45-50%). They were allowed free access to pellet chow and water. TBI in mice was induced by a CCI injury model as previously described. Briefly, 8-week-old male C57BL/6 mice (weighing 22-25 g) were anesthetized through the use of intraperitoneal injection of sodium pentobarbital (65 mg/kg; Rhone Merieux, Harlow, UK) and placed in a stereotaxic frame. A 5 mm craniotomy was performed over the right parietal cortex, centered on the coronal suture and 0.1 mm lateral to the sagittal suture, and injury to dura was avoided. […] Body temperature was monitored throughout the surgery by a rectal probe; temperature was maintained at 37.0±0.5°C using a heated pad. […] To determine the optimal dose of salidroside, a pilot study was performed using 2 different doses (20 and 50 mg/kg) administered 10 min after injury, and neurological deficits and tissue damage were evaluated as the main outcomes. […]

**Q.** With OC[C@H]1O[C@@H](OCCc2ccc(O)cc2)[C@H](O)[C@@H](O)[C@@H]1O [SALD, salidroside] as the compound, how does the “brain water content, ipsilateral hemisphere” value (20 mg/kg ip 10 min after CCI, sham 80.7±0.6%, P<0.05) read?
**A.** The value was 81.0±0.6%.

**Q.** What about the “brain water content, ipsilateral hemisphere” value (50 mg/kg ip 10 min after CCI, not significant) of the same compound?
**A.** The value was 82.2±1.1%.
